# Like-named read-outs stand apart in the source and are kept apart here.
# System: carbapenemase-producing Enterobacteriaceae (CPE)
# Experiment: MIC in human urine and CAMHB at pH 5.0 to 8.0 (Example 13, Tables 29, 30)
compound,measurement,setting,value
"C[C@@H](O)[C@H]1C(=O)N2C(C(=O)O)=C(S[C@@H]3CN[C@H](C(=O)N(C)C)C3)[C@H](C)[C@H]12 [MEPM, meropenem]",MIC,"Escherichia coli, ATCCBAA2469, pH 8, read-out: MICs of MEPM, E. coli ATCC BAA-2469 (NDM-1), CAMHB pH8.0",64 µg/mL
same,MIC,"Escherichia coli, ATCCBAA2469, pH 8, read-out: MICs of MEPM, E. coli ATCC BAA-2469 (NDM-1), Human urine pH8.0",8 µg/mL
same,MIC,"Escherichia coli, NCTC13476, pH 5, read-out: MICs of MEPM, E. coli NCTC 13476 (IMP-1), CAMHB pH5.0",0.25 µg/mL
same,MIC,"Escherichia coli, NCTC13476, pH 5, read-out: MICs of MEPM, E. coli NCTC 13476 (IMP-1), Human urine pH5.0",0.25 µg/mL
same,MIC,"Escherichia coli, NCTC13476, pH 6, read-out: MICs of MEPM, E. coli NCTC 13476 (IMP-1), CAMHB pH6.0",1 µg/mL
same,MIC,"Escherichia coli, NCTC13476, pH 6, read-out: MICs of MEPM, E. coli NCTC 13476 (IMP-1), Human urine pH6.0",0.12 µg/mL
same,MIC,"Escherichia coli, NCTC13476, pH 7, read-out: MICs of MEPM, E. coli NCTC 13476 (IMP-1), Human urine pH7.0",1 µg/mL
same,MIC,"Escherichia coli, NCTC13476, pH 7.2, read-out: MICs of MEPM, E. coli NCTC 13476 (IMP-1), Standard condition (CAMHB pH7.2)",4 µg/mL
same,MIC,"Escherichia coli, NCTC13476, pH 8, read-out: MICs of MEPM, E. coli NCTC 13476 (IMP-1), CAMHB pH8.0",16 µg/mL
same,MIC,"Escherichia coli, NCTC13476, pH 8, read-out: MICs of MEPM, E. coli NCTC 13476 (IMP-1), Human urine pH8.0",8 µg/mL
same,MIC,"Klebsiella pneumoniae, ATCCBAA2342, pH 5, read-out: MICs of MEPM, K. pneumoniae ATCC BAA-2342 (KPC-3), CAMHB pH5.0",16 µg/mL
same,MIC,"Klebsiella pneumoniae, ATCCBAA2342, pH 5, read-out: MICs of MEPM, K. pneumoniae ATCC BAA-2342 (KPC-3), Human urine pH5.0",4 µg/mL
same,MIC,"Klebsiella pneumoniae, ATCCBAA2342, pH 6, read-out: MICs of MEPM, K. pneumoniae ATCC BAA-2342 (KPC-3), CAMHB pH6.0",16 µg/mL
same,MIC,"Klebsiella pneumoniae, ATCCBAA2342, pH 6, read-out: MICs of MEPM, K. pneumoniae ATCC BAA-2342 (KPC-3), Human urine pH6.0",8 µg/mL
same,MIC,"Klebsiella pneumoniae, ATCCBAA2342, pH 7, read-out: MICs of MEPM, K. pneumoniae ATCC BAA-2342 (KPC-3), Human urine pH7.0",16 µg/mL
same,MIC,"Klebsiella pneumoniae, ATCCBAA2342, pH 7.2, read-out: MICs of MEPM, K. pneumoniae ATCC BAA-2342 (KPC-3), Standard condition (CAMHB pH7.2)",16 µg/mL
same,MIC,"Klebsiella pneumoniae, ATCCBAA2342, pH 8, read-out: MICs of MEPM, K. pneumoniae ATCC BAA-2342 (KPC-3), CAMHB pH8.0",16 µg/mL
same,MIC,"Klebsiella pneumoniae, ATCCBAA2342, pH 8, read-out: MICs of MEPM, K. pneumoniae ATCC BAA-2342 (KPC-3), Human urine pH8.0",32 µg/mL
same,MIC,"Klebsiella pneumoniae, ATCCBAA2344, pH 5, read-out: MICs of MEPM, K. pneumoniae ATCC BAA-2344 (KPC-2), CAMHB pH5.0",8 µg/mL
same,MIC,"Klebsiella pneumoniae, ATCCBAA2344, pH 5, read-out: MICs of MEPM, K. pneumoniae ATCC BAA-2344 (KPC-2), Human urine pH5.0",2 µg/mL
same,MIC,"Klebsiella pneumoniae, ATCCBAA2344, pH 6, read-out: MICs of MEPM, K. pneumoniae ATCC BAA-2344 (KPC-2), CAMHB pH6.0",32 µg/mL
same,MIC,"Klebsiella pneumoniae, ATCCBAA2344, pH 6, read-out: MICs of MEPM, K. pneumoniae ATCC BAA-2344 (KPC-2), Human urine pH6.0",8 µg/mL
same,MIC,"Klebsiella pneumoniae, ATCCBAA2344, pH 7, read-out: MICs of MEPM, K. pneumoniae ATCC BAA-2344 (KPC-2), Human urine pH7.0",32 µg/mL
same,MIC,"Klebsiella pneumoniae, ATCCBAA2344, pH 7.2, read-out: MICs of MEPM, K. pneumoniae ATCC BAA-2344 (KPC-2), Standard condition (CAMHB pH7.2)",32 µg/mL
same,MIC,"Klebsiella pneumoniae, ATCCBAA2344, pH 8, read-out: MICs of MEPM, K. pneumoniae ATCC BAA-2344 (KPC-2), CAMHB pH8.0",32 µg/mL
same,MIC,"Klebsiella pneumoniae, ATCCBAA2344, pH 8, read-out: MICs of MEPM, K. pneumoniae ATCC BAA-2344 (KPC-2), Human urine pH8.0",32 µg/mL
same,MIC,"Klebsiella pneumoniae, ATCCBAA2470, pH 5, read-out: MICs of MEPM, K. pneumoniae ATCC BAA-2470 (NDM-1), CAMHB pH5.0",0.12 µg/mL
same,MIC,"Klebsiella pneumoniae, ATCCBAA2470, pH 5, read-out: MICs of MEPM, K. pneumoniae ATCC BAA-2470 (NDM-1), Human urine pH5.0",0.12 µg/mL
same,MIC,"Klebsiella pneumoniae, ATCCBAA2470, pH 6, read-out: MICs of MEPM, K. pneumoniae ATCC BAA-2470 (NDM-1), CAMHB pH6.0",8 µg/mL
same,MIC,"Klebsiella pneumoniae, ATCCBAA2470, pH 6, read-out: MICs of MEPM, K. pneumoniae ATCC BAA-2470 (NDM-1), Human urine pH6.0",0.12 µg/mL
same,MIC,"Klebsiella pneumoniae, ATCCBAA2470, pH 7, read-out: MICs of MEPM, K. pneumoniae ATCC BAA-2470 (NDM-1), Human urine pH7.0",16 µg/mL
same,MIC,"Klebsiella pneumoniae, ATCCBAA2470, pH 7.2, read-out: MICs of MEPM, K. pneumoniae ATCC BAA-2470 (NDM-1), Standard condition (CAMHB pH7.2)",16 µg/mL
same,MIC,"Klebsiella pneumoniae, ATCCBAA2470, pH 8, read-out: MICs of MEPM, K. pneumoniae ATCC BAA-2470 (NDM-1), CAMHB pH8.0",64 µg/mL
same,MIC,"Klebsiella pneumoniae, ATCCBAA2470, pH 8, read-out: MICs of MEPM, K. pneumoniae ATCC BAA-2470 (NDM-1), Human urine pH8.0",8 µg/mL
same,MIC,"Klebsiella pneumoniae, ATCCBAA2524, pH 5, read-out: MICs of MEPM, K. pneumoniae ATCC BAA-2524 (OXA-48), CAMHB pH5.0",0.25 µg/mL
same,MIC,"Klebsiella pneumoniae, ATCCBAA2524, pH 5, read-out: MICs of MEPM, K. pneumoniae ATCC BAA-2524 (OXA-48), Human urine pH5.0",0.25 µg/mL
same,MIC,"Klebsiella pneumoniae, ATCCBAA2524, pH 6, read-out: MICs of MEPM, K. pneumoniae ATCC BAA-2524 (OXA-48), CAMHB pH6.0",0.25 µg/mL
same,MIC,"Klebsiella pneumoniae, ATCCBAA2524, pH 6, read-out: MICs of MEPM, K. pneumoniae ATCC BAA-2524 (OXA-48), Human urine pH6.0",0.25 µg/mL
same,MIC,"Klebsiella pneumoniae, ATCCBAA2524, pH 7, read-out: MICs of MEPM, K. pneumoniae ATCC BAA-2524 (OXA-48), Human urine pH7.0",0.25 µg/mL
same,MIC,"Klebsiella pneumoniae, ATCCBAA2524, pH 7.2, read-out: MICs of MEPM, K. pneumoniae ATCC BAA-2524 (OXA-48), Standard condition (CAMHB pH7.2)",1 µg/mL
same,MIC,"Klebsiella pneumoniae, ATCCBAA2524, pH 8, read-out: MICs of MEPM, K. pneumoniae ATCC BAA-2524 (OXA-48), CAMHB pH8.0",4 µg/mL
same,MIC,"Klebsiella pneumoniae, ATCCBAA2524, pH 8, read-out: MICs of MEPM, K. pneumoniae ATCC BAA-2524 (OXA-48), Human urine pH8.0",1 µg/mL
same,MIC,"Klebsiella pneumoniae, NCTC13439, pH 5, read-out: MICs of MEPM, K. pneumoniae NCTC13439 (VIM-1), CAMHB pH5.0",0.12 µg/mL
same,MIC,"Klebsiella pneumoniae, NCTC13439, pH 5, read-out: MICs of MEPM, K. pneumoniae NCTC13439 (VIM-1), Human urine pH5.0",0.12 µg/mL
same,MIC,"Klebsiella pneumoniae, NCTC13439, pH 6, read-out: MICs of MEPM, K. pneumoniae NCTC13439 (VIM-1), CAMHB pH6.0",1 µg/mL
same,MIC,"Klebsiella pneumoniae, NCTC13439, pH 6, read-out: MICs of MEPM, K. pneumoniae NCTC13439 (VIM-1), Human urine pH6.0",0.06 µg/mL
same,MIC,"Klebsiella pneumoniae, NCTC13439, pH 7, read-out: MICs of MEPM, K. pneumoniae NCTC13439 (VIM-1), Human urine pH7.0",2 µg/mL
same,MIC,"Klebsiella pneumoniae, NCTC13439, pH 7.2, read-out: MICs of MEPM, K. pneumoniae NCTC13439 (VIM-1), Standard condition (CAMHB pH7.2)",4 µg/mL
same,MIC,"Klebsiella pneumoniae, NCTC13439, pH 8, read-out: MICs of MEPM, K. pneumoniae NCTC13439 (VIM-1), CAMHB pH8.0",4 µg/mL
same,MIC,"Klebsiella pneumoniae, NCTC13439, pH 8, read-out: MICs of MEPM, K. pneumoniae NCTC13439 (VIM-1), Human urine pH8.0",1 µg/mL
